This is an account of results in ChEMBL document CHEMBL1201862, “PubChem BioAssay data set” (2004).

The target of one experiment is T1, ORF 73 (Human herpesvirus 8, UniProt O40947).
T1 sequence (O40947 whole entry): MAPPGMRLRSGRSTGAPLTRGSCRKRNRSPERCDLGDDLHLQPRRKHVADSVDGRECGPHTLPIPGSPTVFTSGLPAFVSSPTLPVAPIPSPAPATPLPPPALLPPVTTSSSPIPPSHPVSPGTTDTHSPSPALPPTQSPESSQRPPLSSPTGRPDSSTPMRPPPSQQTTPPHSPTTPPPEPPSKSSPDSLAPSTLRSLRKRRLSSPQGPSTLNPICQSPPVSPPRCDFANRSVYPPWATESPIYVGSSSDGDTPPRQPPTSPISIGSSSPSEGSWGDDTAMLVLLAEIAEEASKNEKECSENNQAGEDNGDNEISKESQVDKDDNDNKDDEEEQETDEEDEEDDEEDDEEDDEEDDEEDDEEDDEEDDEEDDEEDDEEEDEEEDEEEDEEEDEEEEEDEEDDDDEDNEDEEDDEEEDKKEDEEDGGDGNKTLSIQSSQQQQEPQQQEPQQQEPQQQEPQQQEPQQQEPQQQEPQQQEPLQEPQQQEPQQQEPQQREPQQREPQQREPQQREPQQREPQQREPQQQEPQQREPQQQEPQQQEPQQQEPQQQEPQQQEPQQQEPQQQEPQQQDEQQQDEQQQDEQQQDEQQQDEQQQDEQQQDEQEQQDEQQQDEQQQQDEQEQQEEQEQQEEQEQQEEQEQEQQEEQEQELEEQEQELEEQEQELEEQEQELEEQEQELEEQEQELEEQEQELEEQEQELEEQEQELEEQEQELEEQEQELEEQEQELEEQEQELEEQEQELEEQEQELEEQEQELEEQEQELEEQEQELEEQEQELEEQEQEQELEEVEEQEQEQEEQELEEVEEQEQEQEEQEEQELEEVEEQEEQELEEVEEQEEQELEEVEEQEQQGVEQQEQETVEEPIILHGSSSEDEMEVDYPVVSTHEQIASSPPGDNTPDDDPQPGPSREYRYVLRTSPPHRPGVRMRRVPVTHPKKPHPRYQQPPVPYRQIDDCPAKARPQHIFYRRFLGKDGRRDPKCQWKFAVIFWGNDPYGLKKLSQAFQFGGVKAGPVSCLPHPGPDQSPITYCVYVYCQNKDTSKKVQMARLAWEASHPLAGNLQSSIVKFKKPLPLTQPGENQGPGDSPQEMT
Put plainly: inhibitors of C-LANA binding to LBS DNA, dose response, biochemical, fluorescence polarization, cherry-picked samples (AID 504725).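 Note: fluorescence polarization of a labeled DNA duplex reporting LANA DNA binding; potency is for inhibitors that block LANA binding to the DNA.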 Details: species or system Human gammaherpesvirus 8.

The target of experiment [1] is Intestinal-type alkaline phosphatase (Mus musculus, UniProt P24822). Kind of experiment: PubChem AID 488785. The experiment is classed as functional.
Chain of Intestinal-type alkaline phosphatase (P24822 whole entry): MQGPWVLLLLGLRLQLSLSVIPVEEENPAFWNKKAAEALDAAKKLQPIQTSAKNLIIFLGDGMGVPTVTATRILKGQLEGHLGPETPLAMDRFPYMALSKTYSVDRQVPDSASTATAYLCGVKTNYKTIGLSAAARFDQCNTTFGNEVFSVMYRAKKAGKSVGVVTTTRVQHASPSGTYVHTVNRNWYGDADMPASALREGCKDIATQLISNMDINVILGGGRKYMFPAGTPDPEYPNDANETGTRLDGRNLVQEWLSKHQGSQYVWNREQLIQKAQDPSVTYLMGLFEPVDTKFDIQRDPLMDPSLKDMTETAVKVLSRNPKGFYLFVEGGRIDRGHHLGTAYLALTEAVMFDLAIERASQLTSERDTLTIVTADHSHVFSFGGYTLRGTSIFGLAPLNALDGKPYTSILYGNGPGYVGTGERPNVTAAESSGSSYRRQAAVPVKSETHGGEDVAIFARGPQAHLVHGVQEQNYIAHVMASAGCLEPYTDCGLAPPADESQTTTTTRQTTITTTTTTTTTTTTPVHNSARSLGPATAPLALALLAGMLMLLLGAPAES
The target in experiment [2] is T2, 1-phosphatidylinositol 4,5-bisphosphate phosphodiesterase beta-3 (Homo sapiens, UniProt Q01970).
T2 sequence (Q01970 whole entry): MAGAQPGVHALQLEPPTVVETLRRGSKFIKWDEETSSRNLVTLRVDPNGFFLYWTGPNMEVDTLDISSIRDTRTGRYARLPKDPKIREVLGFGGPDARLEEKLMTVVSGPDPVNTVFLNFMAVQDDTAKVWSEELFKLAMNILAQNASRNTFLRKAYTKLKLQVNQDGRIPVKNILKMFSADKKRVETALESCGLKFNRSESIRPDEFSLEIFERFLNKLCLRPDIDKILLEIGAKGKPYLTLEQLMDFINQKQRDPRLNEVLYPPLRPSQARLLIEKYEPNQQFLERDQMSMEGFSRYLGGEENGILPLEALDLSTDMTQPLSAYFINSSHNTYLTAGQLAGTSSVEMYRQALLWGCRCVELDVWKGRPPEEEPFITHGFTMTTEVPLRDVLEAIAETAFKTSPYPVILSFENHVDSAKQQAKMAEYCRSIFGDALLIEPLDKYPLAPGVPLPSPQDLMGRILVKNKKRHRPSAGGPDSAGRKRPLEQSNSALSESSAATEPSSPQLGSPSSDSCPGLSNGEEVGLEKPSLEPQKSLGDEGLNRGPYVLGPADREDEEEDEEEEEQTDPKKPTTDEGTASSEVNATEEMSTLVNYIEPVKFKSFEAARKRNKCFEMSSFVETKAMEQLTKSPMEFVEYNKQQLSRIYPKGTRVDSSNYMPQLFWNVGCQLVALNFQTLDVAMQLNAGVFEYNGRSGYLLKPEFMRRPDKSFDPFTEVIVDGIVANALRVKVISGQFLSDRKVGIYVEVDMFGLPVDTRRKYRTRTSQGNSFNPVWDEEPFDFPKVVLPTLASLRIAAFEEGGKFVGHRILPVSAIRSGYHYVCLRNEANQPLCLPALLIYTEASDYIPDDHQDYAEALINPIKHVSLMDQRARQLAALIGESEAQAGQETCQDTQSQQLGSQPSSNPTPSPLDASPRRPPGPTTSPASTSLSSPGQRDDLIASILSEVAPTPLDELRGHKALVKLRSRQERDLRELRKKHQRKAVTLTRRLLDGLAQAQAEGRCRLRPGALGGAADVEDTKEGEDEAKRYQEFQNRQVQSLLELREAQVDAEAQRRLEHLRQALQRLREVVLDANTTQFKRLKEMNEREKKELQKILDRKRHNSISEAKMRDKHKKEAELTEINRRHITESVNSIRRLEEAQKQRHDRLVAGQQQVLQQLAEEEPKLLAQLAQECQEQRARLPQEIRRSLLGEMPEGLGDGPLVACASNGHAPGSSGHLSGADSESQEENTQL
Kind of experiment: Fluorescence-based biochemical high throughput dose response assay to identify inhibitors of phospholipase C isozymes (PLC-B3).

The nature of experiment [3]: C. albicans growth with fluconazole, confirmation, fluorescence, retest (AID 2467). In kind it is functional, cell-based.

Calls of active or inactive are those of the source.

The AC50 is the midpoint of the concentration-response curve, whichever way the signal moves. With `O=C(O)c1cc(N2N=C(C(F)(F)F)/C(=C/C=C/c3ccco3)C2=O)ccc1Cl`, the AC50 at ORF 73 was 2.28 µM (active).

What is called IC50 is the concentration that gives 50% inhibition. As for `O=C(/C=C/c1ccco1)NC(=S)Nc1cccc(C(=O)O)c1`, the values for the IC50 in experiment [1] and in experiment [2] were 9.52 µM (active) and > 122 µM (inactive), respectively.

Broadly, the EC50 is the concentration that produces a half-maximal response. Read a high EC50 as lower potency in that assay. With `CNCc1ccccc1Sc1ccc(O)c(O)c1`, the EC50 in experiment [3] is given as > 38 µM (not active).
